Data reported in US20230096517A1, “GLUTARIMIDE SKELETON-BASED COMPOUNDS AND APPLICATION THEREOF” (SHANGHAITECH UNIVERSITY, priority 2020, published 2023).

These compounds were tested on MM.1S cells (assay: Proliferation inhibition (IC50) in multiple myeloma cells, cell viability with WST/CCK-8 reagent). Details: Homo sapiens, MM1.S, 72 h, read-out: IC50 (half inhibitory concentration).
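Also: MM.1S B-lymphoblast cells at 15,000 per well in 100 µL serum-containing RPMI1640, experiment run more than three times.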
Procedure: Multiple myeloma cell line: MM.1S (B lymphoblast), purchased from ATCC (American Type Culture Collection). Culture medium was RPMI1640 supplemented with 10% FBS and 1% Penicillin-Streptomycin. The cells used were identified as correct cells by STR cells and negative for mycoplasma by routine inspections.
IC50 values of the compounds of the present disclosure were measured using Cell Titer Blue, Cell Titer GLO, or WST reagent from Promega Company. Assay details are as follows: Cells were seeded in 100 μL RPMI1640 complete medium containing serum at a density of 15,000 cells/well.
The experiment was repeated more than three times.

SMILES	IC50
CC1(C)[C@@H]2CC[C@@]1(C)[C@@H](NCc1ccc(CCc3cccc4c3CN(C3CCC(=O)NC3=O)C4=O)cc1)C2 (stereo partly drawn) [SIAIS1222055, 3-(1-oxo-4-(4-((((1R,2S,4R)-1,7,7-trimethylbicyclo[2.2.1]heptan-2-yl)amino)methyl)phenethyl)isoindolin-2-yl)piperidine-2,6-dione]	0.239 nM
CC(NCCCCCCCNc1cccc2c1C(=O)N(C1CCC(=O)NC1=O)C2=O)C12CC3CC(CC(C3)C1)C2 (stereo not shown) [SIAIS1222193]	2.69 nM
CC1(C)[C@@H]2CC[C@@]1(C)[C@@H](NCc1ccc(CNc3cccc4c3C(=O)N(C3CCC(=O)NC3=O)C4=O)cc1)C2 (stereo partly drawn) [SIAIS1221173, 2-(2,6-dioxopiperidin-3-yl)-4-((4-((((1R,2S,4R)-1,7,7-trimethylbicyclo[2.2.1]heptan-2-yl)amino)methyl)benzyl)amino)isoindoline-1,3-dione]	1.09 nM
O=C1CCC(N2C(=O)c3cccc(NCCCCCCCNC4CC5(CCC5)C4)c3C2=O)C(=O)N1 (stereo not shown) [SIAIS1222189, 2-(2,6-dioxopiperidin-3-yl)-4-((7-(spiro[3.3]heptan-2-ylamino)heptyl)amino)isoindoline-1,3-dione]	0.324 nM
O=C1CCC(N2C(=O)c3cccc(NCCCCCCC(=O)NC45CC6CC(CC(C6)C4)C5)c3C2=O)C(=O)N1 (stereo not shown) [SIAIS1242077, N-(adamantan-1-yl)-7-((2-(2,6-dioxopiperidin-3-yl)-1,3-dioxoisoindolin-4-yl)amino)heptanamide]	0.241 nM
O=C1CCC(N2Cc3c(OCCCCCCCNC4CC5(CCC5)C4)cccc3C2=O)C(=O)N1 (stereo not shown) [SIAIS1224013, 3-(1-oxo-4-((7-(spiro[3.3]heptan-2-ylamino)heptyl)oxy)isoindolin-2-yl)piperidine-2,6-dione]	0.534 nM
O=C1CCC(N2Cc3c(OCCCCCCCN4CCCCC4)cccc3C2=O)C(=O)N1 (stereo not shown) [SIAIS1221109, 3-(1-oxo-4-((7-(piperidin-1-yl)heptyl)oxy)isoindolin-2-yl)piperidine-2,6-dione, reference compound]	17.6 nM
O=C1CCC(N2C(=O)c3cccc(OCCCCCCCN4CCCCC4)c3C2=O)C(=O)N1 (stereo not shown) [SIAIS1221079, 2-(2,6-dioxopiperidin-3-yl)-4-((7-(piperidin-1-yl)heptyl)oxy)isoindoline-1,3-dione, reference compound]	65.9 nM

Continued, values first:

IC50	SMILES
2.46 nM	O=C1CCC(N2C(=O)c3cccc(NCc4ccc(CNC56CC7CC(CC(C7)C5)C6)cc4)c3C2=O)C(=O)N1 (stereo not shown) [SIAIS1222035, 4-((4-(((adamantan-1-yl)amino)methyl)benzyl)amino)-2-(2,6-dioxopiperidin-3-yl)isoindoline-1,3-dione]
0.076 nM	O=C1CCC(N2C(=O)c3cccc(NCCCCCCCNC45CC6CC(CC4C6)C5)c3C2=O)C(=O)N1 (stereo not shown) [SIAIS1242041, 2-(2,6-dioxopiperidin-3-yl)-4-((7-((hexahydro-2,5-methanopentalen-3a(1H)-yl)amino)heptyl)amino)isoindoline-1,3-dione]
0.27 nM	CN(CCCCCCCCc1cccc2c1CN(C1CCC(=O)NC1=O)C2=O)C12CC3CC(CC(C3)C1)C2 (stereo not shown) [SIAIS1222031, 3-(4-(8-((adamantan-1-yl)(methyl)amino)octyl)-1-oxoisoindolin-2-yl)piperidine-2,6-dione]
0.044 nM	O=C1CCC(N2Cc3c(CCCCCCCCNC45CC6CC(CC(C6)C4)C5)cccc3C2=O)C(=O)N1 (stereo not shown) [SIAIS1221105, 3-(4-(8-((adamantan-1-yl)amino)octyl)-1-oxoisoindolin-2-yl)piperidine-2,6-dione]
0.32 ± 0.09 nM	O=C1CCC(N2Cc3c(NCc4ccc(CCNC56CC7CC(CC(C7)C5)C6)cc4)cccc3C2=O)C(=O)N1 (stereo not shown) [SIAIS1227027, 3-(4-((4-(2-((adamantan-1-yl)amino)ethyl)benzyl)amino)-1-oxoisoindolin-2-yl)piperidine-2,6-dione]
0.426 nM	O=C1CCC(N2Cc3c(OCCCCCCCCNC45CC6CC(CC(C6)C4)C5)cccc3C2=O)C(=O)N1 (stereo not shown) [SIAIS1222167, 3-(4-((8-((adamantan-1-yl)amino)octyl)oxy)-1-oxoisoindolin-2-yl)piperidine-2,6-dione]
0.781 nM	O=C1CCC(N2Cc3c(CCCCCCCNCC45CC6CC(CC(C6)C4)C5)cccc3C2=O)C(=O)N1 (stereo not shown) [SIAIS1222021, 3-(4-(7-(((adamantan-1-yl)methyl)amino)heptyl)-1-oxoisoindolin-2-yl)piperidine-2,6-dione]
0.267 nM	O=C1CCC(N2Cc3c(C#CCCCCCCNC45CC6CC(CC4C6)C5)cccc3C2=O)C(=O)N1 (stereo not shown) [SIAIS1242057, 3-(4-(8-((hexahydro-2,5-methanopentalen-3a(1H)-yl)amino)oct-1-yn-1-yl)-1-oxoisoindolin-2-yl)piperidine-2,6-dione]
0.204 nM	O=C1CCC(N2Cc3c(OCCCCCCNCC45CC6CC(CC(C6)C4)C5)cccc3C2=O)C(=O)N1 (stereo not shown) [SIAIS1222165, 3-(4-((6-(((adamantan-1-yl)methyl)amino)hexyl)oxy)-1-oxoisoindolin-2-yl)piperidine-2,6-dione]
1.95 nM	O=C1CCC(N2C(=O)c3cccc(OCc4ccc(CCNC56CC7CC(CC(C7)C5)C6)cc4)c3C2=O)C(=O)N1 (stereo not shown) [SIAIS1241167, 4-((4-(2-((adamantan-1-yl)amino)ethyl)benzyl)oxy)-2-(2,6-dioxopiperidin-3-yl)isoindoline-1,3-dione]
0.78 nM	O=C1CCC(N2C(=O)c3cccc(NCCCCCCCN4CCCCC4)c3C2=O)C(=O)N1 (stereo not shown) [SIAIS1221047, 2-(2,6-dioxopiperidin-3-yl)-4-((7-(piperidin-1-yl)heptyl)amino)isoindoline-1,3-dione, reference compound]

Same assay, conditions: Homo sapiens, MM1.S, 72 h, read-out: IC50 (half inhibitory concentration), MM.1S multiple myeloma cells, WST reagent, 72 h treatment

IC50	SMILES
~0.09 nM	O=C1CCC(N2Cc3c(OCCCCCCCNC45CC6CC(CC(C6)C4)C5)cccc3C2=O)C(=O)N1 (stereo not shown) [SIAIS1221111, 3-(4-((7-((adamantan-1-yl)amino)heptyl)oxy)-1-oxoisoindolin-2-yl)piperidine-2,6-dione]
0.16 ± 0.03 nM	O=C1CCC(N2C(=O)c3cccc(NCCCCCCCNC45CC6CC(CC(C6)C4)C5)c3C2=O)C(=O)N1 (stereo not shown) [SIAIS1221053, 4-((7-((adamantan-1-yl)amino)heptyl)amino)-2-(2,6-dioxopiperidin-3-yl)isoindoline-1,3-dione]

Same assay, conditions: read-out: IC50 (half inhibitory concentration); MM.1S multiple myeloma cells, WST reagent, 72 h treatment

IC50	SMILES
0.089 nM	O=C1CCC(N2Cc3c(OCCCCCCCNC45CC6CC(CC(C6)C4)C5)cccc3C2=O)C(=O)N1 (stereo not shown) [SIAIS1221111, 3-(4-((7-((adamantan-1-yl)amino)heptyl)oxy)-1-oxoisoindolin-2-yl)piperidine-2,6-dione]
